The conditions of this data set: 298.15 K; for surface tension liquid-gas: Ring tensiometer; for mass density: 101.33 kPa, Liquid, Vibrating tube method.

Numbers after ± are expanded uncertainties.

For orientation: surface tension liquid-gas means the force per length acting along the surface. By mass density is commonly meant mass per unit of volume.

Turning to `CCOP(=O)([O-])OCC.CCn1cc[n+](CC)c1` [1,3-diethyl-1H-imidazol-3-ium diethyl phosphate], the surface tension liquid-gas is 35.5 ± 0.5 mN/m and the mass density was 1125.96 ± 0.15 kg/m3. Turning to `COP(=O)([O-])OC.Cn1cc[n+](C)c1` [1,3-dimethylimidazolium dimethylphosphate], the surface tension liquid-gas amounted to 48.4 ± 0.6 mN/m and the mass density is 1252.6 ± 0.22 kg/m3. Turning to `CCCCn1cc[n+](CC)c1.CCOP(=O)([O-])OCC` [1-butyl-3-ethyl-1H-imidazol-3-ium diethyl phosphate], the surface tension liquid-gas came out at 32.2 ± 0.5 mN/m and the mass density worked out at 1083.21 ± 0.1 kg/m3.

As for `CCCCn1cc[n+](C)c1.COP(=O)([O-])OC` [1-butyl-3-methyl-1H-imidazolium dimethylphosphate], the surface tension liquid-gas worked out at 38 ± 0.5 mN/m. Turning to `CCCCOP(=O)([O-])OCCCC.CCCCn1cc[n+](C)c1` [1-butyl-3-methylimidazolium dibutyl phosphate], the surface tension liquid-gas turned out to be 29.4 ± 0.4 mN/m and the mass density is on record as 1046.18 ± 0.09 kg/m3. For the molecule `CCOP(=O)([O-])OCC.CCn1cc[n+](C)c1` [1-ethyl-3-methylimidazolium diethyl phosphate], the surface tension liquid-gas was found to be 37.1 ± 0.5 mN/m and the mass density is 1148.86 ± 0.14 kg/m3. For the molecule `CCn1cc[n+](C)c1.COP(=O)([O-])OC` [1-ethyl-3-methylimidazolium dimethylphosphate], the surface tension liquid-gas is reported as 44.3 ± 0.62 mN/m.

In the case of `CCO` [ethanol], the surface tension liquid-gas was 21.9 ± 0.3 mN/m and the mass density amounted to 785.83 ± 0.17 kg/m3. In the case of `CO` [methanol], the surface tension liquid-gas is reported as 22.4 ± 0.3 mN/m and the mass density was determined as 786.55 ± 0.17 kg/m3.

As to `O` [water], the surface tension liquid-gas amounted to 71.9 ± 0.9 mN/m.

Source of the values: the NIST ThermoML archive (doi:10.1021/je400004j).
